In ChEMBL document CHEMBL4680227, “Design and synthesis of selective degraders of EGFR mutant” (Eur J Med Chem, 2020):
Values belong to the compound of their own block, whether it stands above or below them. Calls of active or inactive are those of the source. The calls are words filed in the database; no cut-off is given here.

How the values were obtained:
[1] = molecular target: E3 ubiquitin-protein ligase Mdm2/Epidermal growth factor receptor (Homo sapiens, UniProt Q00987+P00533); assay: Protac activity at MDM2/EGFR in human A431 cells assessed as EGFR degradation by Western blot analysis; assay type: cell-based; details: a-431
[2] = molecular target: T1, von Hippel-Lindau disease tumor suppressor/Epidermal growth factor receptor (Homo sapiens, UniProt P00533+P40337); assay: Protac activity at VHL/EGFR in human A431 cells assessed as EGFR degradation by Western blot analysis; assay type: cell-based; details: a-431
[3] = molecular target: von Hippel-Lindau disease tumor suppressor/Epidermal growth factor receptor (Homo sapiens, UniProt P00533+P40337, T790M/L858R); assay: Protac activity at VHL/EGFR L858R/T790M mutant in human NCI-H1975 cells assessed as EGFR degradation by Western blot analysis; assay type: cell-based
[4] = molecular target: Epidermal growth factor receptor (Homo sapiens, UniProt P00533, L858R/T790M); assay: Inhibition of EGFR L858R/T790M (unknown origin) using Poly (Glu, Tyr) 4:1 as substrate measured after 1 hr by ELISA
[5] = molecular target: T2, Epidermal growth factor receptor (Homo sapiens, UniProt P00533); assay: Inhibition of wild-type EGFR (unknown origin) using Poly (Glu, Tyr) 4:1 as substrate measured after 1 hr by ELISA
[6] = test system: von Hippel-Lindau disease tumor suppressor/Epidermal growth factor receptor (Homo sapiens), P00533+P40337 [L858R,T790M]; assay: Protac activity at VHL/EGFR L858R/T790M mutant in human NCI-H1975 cells assessed as EGFR degradation measured after 16 hrs by Western blot analysis; assay type: cell-based
[7] = test system: von Hippel-Lindau disease tumor suppressor/Epidermal growth factor receptor (Homo sapiens), P00533+P40337 [L858R,T790M]; assay: Protac activity at VHL/EGFR L858R/T790M mutant in human NCI-H1975 cells assessed as reduction in EGFR autophosphorylation measured after 16 hrs by Western blot analysis; assay type: cell-based
[8] = test system: von Hippel-Lindau disease tumor suppressor/Epidermal growth factor receptor (Homo sapiens), P00533+P40337 [L858R,T790M]; assay: Protac activity at VHL/EGFR L858R/T790M mutant in human NCI-H1975 cells assessed as reduction in AKT phosphorylation measured after 16 hrs by Western blot analysis; assay type: cell-based
[9] = test system: von Hippel-Lindau disease tumor suppressor/Epidermal growth factor receptor (Homo sapiens), P00533+P40337 [L858R,T790M]; assay: Protac activity at VHL/EGFR L858R/T790M mutant in human NCI-H1975 cells assessed as reduction in ERK phosphorylation measured after 16 hrs by Western blot analysis; assay type: cell-based
[10] = Effect on AKT level in human NCI-H1975 cells up to 10000 nM treated 8 hrs post serum starvation measured after 16 hrs by Western blot analysis; assay type: ADME, cell-based; details: nci-h1975, 16 h
[11] = Effect on ERK level in human NCI-H1975 cells up to 10000 nM treated 8 hrs post serum starvation measured after 16 hrs by Western blot analysis; assay type: ADME, cell-based; details: nci-h1975, 16 h
[12] = test system: von Hippel-Lindau disease tumor suppressor/Epidermal growth factor receptor (Homo sapiens), P00533+P40337 [L858R,T790M]; assay: Protac activity at VHL/EGFR L858R/T790M mutant in human NCI-H1975 cells assessed as EGFR degradation at >2000 nM measured after 16 hrs by Western blot analysis; assay type: cell-based; details: dose nM >2000, time 16.0 hrs
[13] = test system: von Hippel-Lindau disease tumor suppressor/Epidermal growth factor receptor (Homo sapiens), P00533+P40337 [L858R,T790M]; assay: Protac activity at VHL/EGFR L858R/T790M mutant in human NCI-H1975 cells assessed as reduction in AKT phosphorylation at >2000 nM measured after 16 hrs by Western blot analysis; assay type: cell-based; details: dose nM >2000, time 16.0 hrs
[14] = test system: von Hippel-Lindau disease tumor suppressor/Epidermal growth factor receptor (Homo sapiens), P00533+P40337 [L858R,T790M]; assay: Protac activity at VHL/EGFR L858R/T790M mutant in human NCI-H1975 cells assessed as reduction in ERK phosphorylation at >2000 nM measured after 16 hrs by Western blot analysis; assay type: cell-based; details: dose nM >2000, time 16.0 hrs
[15] = molecular target: T1, von Hippel-Lindau disease tumor suppressor/Epidermal growth factor receptor; assay: Protac activity at VHL/EGFR in human A431 cells assessed as EGFR degradation up to 10000 nM measured after 16 hrs by Western blot analysis; assay type: cell-based; details: A-431, dose nM <=10000, time 16.0 hrs
[16] = molecular target: T1, von Hippel-Lindau disease tumor suppressor/Epidermal growth factor receptor; assay: Protac activity at VHL/EGFR in human A431 cells assessed as reduction in AKT phosphorylation up to 10000 nM measured after 16 hrs by Western blot analysis; assay type: cell-based; details: A-431, dose nM <=10000, time 16.0 hrs
[17] = molecular target: T1, von Hippel-Lindau disease tumor suppressor/Epidermal growth factor receptor; assay: Protac activity at VHL/EGFR in human A431 cells assessed as reduction in ERK phosphorylation up to 10000 nM measured after 16 hrs by Western blot analysis; assay type: cell-based; details: A-431, dose nM <=10000, time 16.0 hrs
[18] = test system: von Hippel-Lindau disease tumor suppressor/Epidermal growth factor receptor (Homo sapiens), P00533+P40337 [L858R,T790M]; assay: Protac activity at VHL/EGFR L858R/T790M mutant in human NCI-H1975 cells assessed as induction of EGFR degradation at 200 nM measured after 6 hrs by Western blot analysis relative to control; assay type: cell-based
[19] = test system: von Hippel-Lindau disease tumor suppressor/Epidermal growth factor receptor (Homo sapiens), P00533+P40337 [L858R,T790M]; assay: Protac activity at VHL/EGFR L858R/T790M mutant in human NCI-H1975 cells assessed as induction of EGFR degradation at 200 nM measured after 12 hrs by Western blot analysis relative to control; assay type: cell-based
[20] = test system: von Hippel-Lindau disease tumor suppressor/Epidermal growth factor receptor (Homo sapiens), P00533+P40337 [L858R,T790M]; assay: Protac activity at VHL/EGFR L858R/T790M mutant in human NCI-H1975 cells assessed as induction of EGFR degradation at 200 nM measured after 24 hrs by Western blot analysis; assay type: cell-based
NCI-H1975 = assay: Antiproliferative activity against human NCI-H1975 cells measured after 72 hrs by CCK8 assay; assay type: functional, cell-based; details: NCI-H1975, 72 h
[21] = test system: von Hippel-Lindau disease tumor suppressor/Epidermal growth factor receptor (Homo sapiens), P00533+P40337 [L858R,T790M]; assay: Protac activity at VHL/EGFR L858R/T790M mutant in human NCI-H1975 cells assessed as induction of EGFR degradation at 10 to 100 nM measured after 12 hrs in presence of proteasome inhibitor MG132 by Western blot analysis; assay type: cell-based; details: dose 10-100 nM
[22] = test system: von Hippel-Lindau disease tumor suppressor/Epidermal growth factor receptor (Homo sapiens), P00533+P40337 [L858R,T790M]; assay: Protac activity at VHL/EGFR L858R/T790M mutant in human NCI-H1975 cells assessed as induction of EGFR degradation at 10 to 100 nM measured after 1 hr in presence of protein synthesis inhibitor cycloheximide by Western blot analysis; assay type: cell-based; details: dose 10-100 nM
[23] = test system: von Hippel-Lindau disease tumor suppressor/Epidermal growth factor receptor (Homo sapiens), P00533+P40337 [L858R,T790M]; assay: Protac activity at VHL/EGFR L858R/T790M mutant in human NCI-H1975 cells assessed as induction of EGFR degradation at 100 nM in presence of EGFR L858R/T790M mutant ligand XTF-262 by Western blot analysis; assay type: cell-based
[24] = test system: von Hippel-Lindau disease tumor suppressor/Epidermal growth factor receptor (Homo sapiens), P00533+P40337 [L858R,T790M]; assay: Protac activity at VHL/EGFR L858R/T790M mutant in human NCI-H1975 cells assessed as induction of EGFR degradation at 100 nM in presence of EGFR L858R/T790M mutant ligand osimertinib by Western blot analysis; assay type: cell-based
[25] = test system: von Hippel-Lindau disease tumor suppressor/Epidermal growth factor receptor (Homo sapiens), P00533+P40337 [L858R,T790M]; assay: Protac activity at VHL/EGFR L858R/T790M mutant in human NCI-H1975 cells assessed as induction of EGFR degradation at 100 nM in presence of VHL ligand (S,R,S)-AHPC osimertinib by Western blot analysis; assay type: cell-based
[26] = molecular target: E3 ubiquitin-protein ligase Mdm2/Epidermal growth factor receptor (Homo sapiens, UniProt Q00987+P00533, T790M/L858M); assay: Protac activity at MDM2/EGFR L858R/T790M mutant in human NCI-H1975 cells assessed as EGFR degradation by Western blot analysis; assay type: cell-based
[27] = molecular target: Protein cereblon/Epidermal growth factor receptor (Homo sapiens, UniProt P00533+Q96SW2); assay: Protac activity at CRBN/EGFR in human A431 cells assessed as EGFR degradation by Western blot analysis; assay type: cell-based; details: a-431
[28] = molecular target: T2, Epidermal growth factor receptor; assay: Induction of EGFR degradation in human A431 cells by Western blot analysis; details: a-431
[29] = molecular target: Epidermal growth factor receptor (Homo sapiens, UniProt P00533, T790M/L858R); assay: Induction of EGFR L858R/T790M mutant degradation in human NCI-H1975 cells by Western blot analysis

SMILES: C=CC(=O)Nc1cccc(-n2c(=O)cc(C)c3cnc(Nc4ccc(N5CCN(CCCCCCCCCCCCNC(=O)c6ccc(NC(=O)[C@@H]7N[C@@H](CC(C)(C)C)[C@](C#N)(c8ccc(Cl)cc8F)[C@H]7c7cccc(Cl)c7F)c(OC)c6)CC5)cc4OC)nc32)c1
- DC50 [1]: > 2 µM

SMILES: C=CC(=O)Nc1cccc(-n2c(=O)cc(C)c3cnc(Nc4ccc(N5CCN(CCCCCC(=O)N[C@H](C(=O)N6C[C@H](O)C[C@H]6C(=O)NCc6ccc(-c7scnc7C)cc6)C(C)(C)C)CC5)cc4OC)nc32)c1
- DC50 [2]: > 2 µM
- DC50 [3]: 0.0059 µM
- IC50 [4]: 0.0193 µM
- IC50 [5]: > 1 µM
- Activity [6]: Dose-dependent effect
- Activity [7]: Dose-dependent effect
- Activity [8]: Dose-dependent effect
- Activity [9]: Dose-dependent effect
- Activity [10]: Non-Toxic
- Activity [11]: Non-Toxic
- Activity [12]: Active
- Activity [13]: inactive
- Activity [14]: inactive
- Activity [15]: inactive
- Activity [16]: inactive
- Activity [17]: inactive
- Activity [18]: 63%
- Activity [19]: 89%
- Activity [20]: inactive
- IC50 (NCI-H1975): 0.506 µM
- Activity [21]: inactive
- Activity [22]: Active
- Activity [23]: inactive
- Activity [24]: inactive
- Activity [25]: inactive

SMILES: C=CC(=O)Nc1cccc(-n2c(=O)cc(C)c3cnc(Nc4ccc(N5CCN(C(=O)CCCCCCCCC(=O)N[C@H](C(=O)N6C[C@H](O)C[C@H]6C(=O)NCc6ccc(-c7scnc7C)cc6)C(C)(C)C)CC5)cc4OC)nc32)c1
- DC50 [2]: > 2 µM
- DC50 [3]: 0.069 µM

SMILES: C=CC(=O)Nc1cccc(-n2c(=O)cc(C)c3cnc(Nc4ccc(N5CCN(C(=O)CCCCCCCCCNC(=O)c6ccc(NC(=O)[C@@H]7N[C@@H](CC(C)(C)C)[C@](C#N)(c8ccc(Cl)cc8F)[C@H]7c7cccc(Cl)c7F)c(OC)c6)CC5)cc4OC)nc32)c1
- DC50 [1]: > 2 µM
- DC50 [26]: 0.313 µM

SMILES: C=CC(=O)Nc1cccc(-n2c(=O)cc(C)c3cnc(Nc4ccc(N5CCN(CCCC(=O)N[C@H](C(=O)N6C[C@H](O)C[C@H]6C(=O)NCc6ccc(-c7scnc7C)cc6)C(C)(C)C)CC5)cc4OC)nc32)c1
- DC50 [2]: > 2 µM

SMILES: C=CC(=O)Nc1cccc(-n2c(=O)cc(C)c3cnc(Nc4ccc(N5CCN(C(=O)CCCCCCCCCCC(=O)Nc6cccc7c6C(=O)N(C6CCC(=O)NC6=O)C7=O)CC5)cc4OC)nc32)c1 (stereo not drawn)
- DC50 [27]: > 2 µM

SMILES: C=CC(=O)Nc1cccc(-n2c(=O)cc(C)c3cnc(Nc4ccc(N5CCN(C(=O)CCCCCCCNC(=O)c6ccc(NC(=O)[C@@H]7N[C@@H](CC(C)(C)C)[C@](C#N)(c8ccc(Cl)cc8F)[C@H]7c7cccc(Cl)c7F)c(OC)c6)CC5)cc4OC)nc32)c1
- DC50 [1]: > 2 µM
- DC50 [26]: 0.253 µM

SMILES: C=CC(=O)Nc1cccc(-n2c(=O)cc(C)c3cnc(Nc4ccc(N5CCN(C(=O)CCCCCNC(=O)c6ccc(NC(=O)[C@@H]7N[C@@H](CC(C)(C)C)[C@](C#N)(c8ccc(Cl)cc8F)[C@H]7c7cccc(Cl)c7F)c(OC)c6)CC5)cc4OC)nc32)c1
- DC50 [1]: > 2 µM
- DC50 [26]: 0.077 µM

- DC50 [28]: > 2 µM
- DC50 [29]: > 2 µM
SMILES: C=CC(=O)Nc1cccc(-n2c(=O)cc(C)c3cnc(Nc4ccc(N5CCN(C)CC5)cc4OC)nc32)c1
